Patent US8685408B2 (priority 2006, dated 2014)
Where two headings read alike, the source gives them in different places.

What was measured:
EG7 tumor [1] = test system: EG7 tumor; set-up: species or system C57BL6 mice; conditions: mouse, in vivo, sc
dendritic cells = test system: dendritic cells; set-up: species or system mice; conditions: mouse, in vivo
EG7 tumor [2] = test system: EG7 tumor; set-up: species or system C57BL6 mice; conditions: mouse, in vivo, sc; remark: listed apart in the source
Gb3 = test system: Gb3; set-up: species or system mice; conditions: mouse, in vivo
[3] = test system: anti-OVA257-264 CD8^+T cells; set-up: species or system C57BL/6 mice; conditions: mouse, in vivo

CCCCCCCCCCCCCCCCCCCCCCCCCC(=O)N[C@@H](CC[C@H]1O[C@H](CO)[C@H](O)[C@H](O)[C@H]1O)[C@H](O)[C@H](O)CCCCCCCCCCCCCC [C-αGalCer]
growth of EG7 tumor (EG7 tumor [1]): will not control the growth of the tumor

CCCCCCCCCCCCCCCCCCCCCCCCCC(=O)N[C@@H](CO[C@H]1O[C@H](CO)[C@H](O)[C@H](O)[C@H]1O)[C@H](O)[C@H](O)CCCCCCCCCCCCCC [α-GalCer, (2S,3S,4S)-1-O-(α-D-galactopyranosyloxy)-2-hexacosanoylamino-3,4-octadecanediol]
costimulatory molecules (CD86) and MHC class II / activation of dendritic cells (dendritic cells): rapid increase
growth of EG7 tumor (EG7 tumor [2]): did not control the growth of the tumor
membrane expression of Gb3 on dendritic and B cells (Gb3): did not regulate

Poly (I:C)
costimulatory molecules (CD86) and MHC class II / activation of dendritic cells (dendritic cells): also activated dendritic cells

B1: OVA (protein, UniProt P01012 2-386, looked up)
Ovalbumin: GSIGAASMEFCFDVFKELKVHHANENIFYCPIAIMSALAMVYLGAKDSTRTQINKVVRFDKLPGFGDSIEAQCGTSVNVHSSLRDILNQITKPNDVYSFSLASRLYAEERYPILPEYLQCVKELYRGGLEPINFQTAADQARELINSWVESQTNGIIRNVLQPSSVDSQTAMVLVNAIVFKGLWEKAFKDEDTQAMPFRVTEQESKPVQMMYQIGLFRVASMASEKMKILELPFASGTMSMLVLLPDEVSGLEQLESIINFEKLTEWTSSNVMEERKIKVYLPRMKMEEKYNLTSVLMAMGITDVFSSSANLSGISSAESLKISQAVHAAHAEINEAGREVVGSAEAGVDAASVSEEFRADHPFLFCIKHIATNAVLFFGRCVSP
induction of anti-OVA257-264 CD8^+T cells [3]: no significant induction
